# Experimental data: PubChem BioAssay (NCI)
# “And” between values parts separate entries of the source, which are not always exact repeats. Equal values may be shown once.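 Five compound concentrations were applied to cells in 96-well plates for 48 hours; endpoints were derived by simple linear interpolation of the resulting dose-response curve. GI50: concentration for 50% inhibition of growth. Definition used: TGI = concentration required for complete inhibition of growth.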
# What was measured:
# Experiment in all cases: NCI tumour cell line growth inhibition, 48 h
# LOX IMVI melanoma = test system: LOX IMVI melanoma
# HCT-15 colon = test system: HCT-15 colon
# SN12C renal = test system: SN12C renal
# HT29 colon = test system: HT29 colon
# IGROV1 ovarian = test system: IGROV1 ovarian
# SW-620 colon = test system: SW-620 colon
# HCT-116 colon = test system: HCT-116 colon
# SF-539 CNS = test system: SF-539 CNS
# COLO 205 colon = test system: COLO 205 colon
# OVCAR-8 ovarian = test system: OVCAR-8 ovarian
Structure (SMILES),GI50 (LOX IMVI melanoma) [µM],GI50 (HCT-15 colon),TGI (HCT-15 colon),TGI (SN12C renal),GI50 (HT29 colon) [µM],TGI (HT29 colon),TGI (IGROV1 ovarian),GI50 (SW-620 colon) [µM],TGI (SW-620 colon),GI50 (HCT-116 colon) [µM],TGI (HCT-116 colon),GI50 (SF-539 CNS) [µM],TGI (SF-539 CNS) [µM],GI50 (COLO 205 colon) [µM],TGI (COLO 205 colon),GI50 (OVCAR-8 ovarian),TGI (OVCAR-8 ovarian),TGI (LOX IMVI melanoma) [µM],GI50 (SN12C renal) [µM],GI50 (IGROV1 ovarian) [µM]
CCC1=C[C@@H]2CN(C1)Cc1c([nH]c3ccccc13)[C@@](C(=O)OC)(c1cc3c(cc1OC)N(C)[C@H]1[C@@](O)(C(=O)OC)[C@H](OC(C)=O)[C@]4(CC)[C@@H]5C[C@@H]5CN5CC[C@]31[C@@H]54)C2,< 0.005,0.0162 µM and 0.0881 µM,6.21 µM and 16 µM,7.54 µM and 18.5 µM,< 0.005,0.8 µM and 1.06 µM,6.87 µM and 14.5 µM,< 0.005,9.16 µM and 21 µM,< 0.005,5.18 µM and 13 µM,0.0342,2.91,< 0.005,0.00546 µM and 0.0282 µM,< 0.005 µM and 0.0292 µM,6.9 µM and 12.7 µM,–,–,–
O=C1c2cccnc2-c2nc(-c3ccncc3)cc3c2c1nc1ccccc13,16.1,10.2 µM,21.8 µM,47.5 µM,17.9,31.7 µM,28.8 µM,12.7,41.6 µM,17.1,51 µM,2.95,13.6,30,72.6 µM,10.5 µM,24 µM,43.6,20,4.67
CC(=O)[CH-]C(C)=O.[CH2-]C.[CH2-]C.[Tl+3],> 100,> 100 µM,> 100 µM,> 100 µM,> 100,> 100 µM,> 100 µM,> 100,> 100 µM,> 100,> 100 µM,> 100,> 100,> 100,> 100 µM,> 100 µM,> 100 µM,> 100,> 100,> 100
Cc1ccc(S(=O)(=O)N/N=C(\c2nc3ccc([N+](=O)[O-])cc3[nH]c2=O)C(O)c2ccccc2Cl)cc1 (stereo not drawn),–,–,> 100 µM,> 100 µM,–,> 100 µM,> 100 µM,–,> 100 µM,–,> 100 µM,–,> 100,–,> 100 µM,–,> 100 µM,> 100,–,–
O=C1C=C(O)c2[nH]c(=O)ccc2C1=O,–,–,> 100 µM,> 100 µM,–,> 100 µM,> 100 µM,–,> 100 µM,–,> 100 µM,–,> 100,–,> 100 µM,–,> 100 µM,> 100,–,–
NC(=O)C1(N2CCCCC2)CCN(CCCC(=O)c2ccc(F)cc2)CC1,0.254,24.7 µM,> 100 µM,> 100 µM,0.818,> 20 µM,> 100 µM,0.173,> 100 µM,0.777,> 100 µM,1.42,13.6,0.715,6.89 µM,4.91 µM,> 100 µM,> 100,5.24,7.28
Cc1cc(N(CCC#N)CCC#N)ccc1/C=C1N=C(/C=C/c2ccccc2)OC(=O)N\1,–,–,> 100 µM,> 100 µM,–,> 100 µM,> 100 µM,–,> 100 µM,–,> 100 µM,–,> 100,–,> 100 µM,–,> 100 µM,> 100,–,–
COc1ccccc1-c1cc(=O)c2ccc(C)nc2[nH]1,–,–,> 100 µM,> 100 µM,–,> 100 µM,> 100 µM,–,> 100 µM,37.6,> 100 µM,–,> 100,–,> 100 µM,–,> 100 µM,> 100,–,–
Cc1ccccc1Nc1nc2c(s1)C(=O)c1ccccc1C2=O,–,–,10.7 µM,6.32 µM,–,40.7 µM,26.4 µM,–,6.65 µM,–,6.66 µM,–,12.7,–,34.7 µM,–,9.05 µM,5.27,–,–
Cn1c([N+](=O)[O-])cnc1/C=C1\Oc2cc(Cl)ccc2C1=O,0.2,0.267 µM,1.05 µM,6.65 µM,0.203,0.657 µM,> 20.2 µM,0.159,1.06 µM,0.201,0.806 µM,1.71,4.81,0.742,3.59 µM,0.401 µM,> 100 µM,0.553,0.713,0.783
O=C(/C=C/c1ccccc1)CC(c1ccccc1)N1CCOCC1 (stereo not drawn),0.371,1.96 µM,5.52 µM,14.8 µM,3.7,16.7 µM,5.78 µM,2.33,4.91 µM,1.15,2.37 µM,2.24,5.98,2.45,5.64 µM,4.57 µM,17.3 µM,1.36,4.25,2.14
